Patent US8987195B2 (priority 2012, dated 2015)

Molecular target: HCV NS3/4A protease genotype 1b (Hepatitis C virus genotype 1b, UniProt P26663)
Assay: HCV NS3/4A protease time-resolved fluorescence (TRF) assay, Ki against genotype 1b
Assay type: biochemical
Procedure: Measuring NS3/4A Inhibitory Activity (Ki) Against Genotype 1b, Against A156T Mutants and Against Genotype 3a
One assay for measuring inhibitory activity is HCV NS3 protease time-resolved fluorescence (TRF) assay as described below and in Mao et al., Anal. Biochem. 373:1-8, 2008 and International Patent Application Publication WO 2006/102087. A NS3 protease assay can be performed, for example, in a final volume of 20 μl assay buffer containing 50 mM HEPES, pH 7.5, 150 mM NaCl, 15% glycerol, 0.15% TRITON X-100, 10 mM DTT, and 0.1% PEG 8000. NS3 and NS4A protease is pre-incubated with various concentrations of inhibitors in DMSO for 30 min. The reaction is initiated by adding the TRF peptide substrate (final concentration 25 nM). NS3 mediated hydrolysis of the substrate was run for 2.5 hours at room temperature. Product fluorescence is detected using A Pherastar Plus plate reader (BMG) or Envision (Perkin Elmer Life and Analytical Sciences with excitation at 340 nm and emission at 615 nm using the appropriate delay time optimized for the europium fluorescence probe. Testing concentrations of different enzyme forms are selected to result in a signal to background ratio (S/B) of 10-30. IC50 values are derived using a standard four-parameter fit to the data. Ki values are derived from IC50 values using the following formula, IC50=Ki(1+[S]/KM), Eqn (1), where [S] is the concentration of substrate peptide in the reaction and KM is the Michaelis constant. See P. Gallinari et al., 38 BIOCHEM. 5620-32 (1999); P. Gallinari et al., 72 J. VIROL. 6758-69 (1998); M. Taliani et al., 240 ANAL. BIOCHEM. 60-67 (1996); Mao et al., Analytical Biochemistry 373: 1-8, 2008.
The assay described above was run against genotype 1b at a concentration of 0.2 nM, against A156T mutant strains at a concentration of 0.4 nM, and against genotype 3a at a concentration of 0.025 nM.

[1] = IC50 [gt-1b], NS3/4A protease TRF assay, genotype 1b enzyme 0.2 nM
[2] = IC50 [gt-1b] (nM), NS3/4A genotype 1b, enzyme 0.2 nM
[3] = IC50 [gt-1b], NS3/4A protease TRF assay, genotype 1b enzyme 0.2 nM, K+ salt

With `COc1ccc2nc(C(F)(F)F)c3c(c2c1)[C@](C)(O)C[C@]1(C[C@H]2C(=O)N[C@]4(C(=O)NS(=O)(=O)C5(C)CC5)C[C@H]4/C=C\CCCCC[C@H](NC(=O)OCC(C)C)C(=O)N2C1)O3` [Example 505, 2-methylpropyl [(1′R,2S,6S,12Z,13aS,14aR,16aS)-1′-hydroxy-9′-methoxy-1′-methyl-14a-{[(1-methylcyclopropyl)sulfonyl]carbamoyl}-5,16-dioxo-5′-(trifluoromethyl)-1,1′,2′,5,6,7,8,9,10,11,13a,14,14a,15,16,16a-hexadecahydrospiro[cyclopropa[e]pyrrolo[1,2-a][1,4]diazacyclopentadecine-2,3′-pyrano[2,3-c]quinolin]-6-yl]carbamate] the IC50 [1] was 0.016 nM.
Work on `COc1ccc2nc(C(F)F)c3c(c2n1)CC[C@]1(C[C@H]2C(=O)N[C@]4(C(=O)NS(=O)(=O)C5(C)CC5)C[C@H]4/C=C\CCCCC[C@H](NC(=O)OC(C)(C)C)C(=O)N2C1)O3` [Example 12, tert-Butyl ((2R,6S,13aS,14aR,16aS,Z)-6′-(difluoromethyl)-2′-methoxy-14a-(((1-methylcyclopropyl)sulfonyl)carbamoyl)-5,16-dioxo-3,5,6,7,8,9,9′,10,10′,11,13a,14,14a, 15,16,16a-hexadecahydro-1H-spiro[cyclopropa[e]pyrrolo[1,2-a][1,4]diazacyclopentadecine-2,8′-pyrano[2,3-c][1,5]naphthyridin]-6-yl)carbamate] yielded an IC50 [2] of 0.007 nM.
With `COc1ccc2nc(C(F)F)c3c(c2c1)CC[C@]1(C[C@H]2C(=O)N[C@]4(C(=O)NS(=O)(=O)C5(C)CC5)C[C@H]4/C=C\CCCCC[C@H](NC(=O)OC4CCC4)C(=O)N2C1)O3` [Example 508, cyclobutyl [(2R,6S,12Z,13aS,14aR,16aS)-5′-(difluoromethyl)-9′-methoxy-14a-{[(1-methylcyclopropyl)sulfonyl]carbamoyl}-5,16-dioxo-1,1′,2′,5,6,7,8,9,10,11,13a,14,14a,15,16,16a-hexadecahydrospiro[cyclopropa[e]pyrrolo[1,2-a][1,4]diazacyclopentadecine-2,3′-pyrano[2,3-c]quinolin]-6-yl]carbamate] the IC50 [3] was 0.004 nM.
For `Cc1ccc2nc(C(F)(F)F)c3c(c2c1)CC[C@]1(C[C@H]2C(=O)N[C@]4(C(=O)NS(=O)(=O)C5(C)CC5)C[C@H]4/C=C\CCCCC[C@H](NC(=O)OC4CCCC4)C(=O)N2C1)O3` [Example 392, cyclopentyl [(2R,6S,12Z,13aS,14aR,16aS)-9′-methyl-14a-{[(1-methylcyclopropyl)sulfonyl]carbamoyl}-5,16-dioxo-5′-(trifluoromethyl)-1,1′,2′,5,6,7,8,9,10,11,13a,14,14a,15,16,16a-hexadecahydrospiro[cyclopropa[e]pyrrolo[1,2-a][1,4]diazacyclopentadecine-2,3′-pyrano[2,3-c]quinolin]-6-yl]carbamate], the IC50 [1] was 0.014 nM.
In the case of `COc1ccc2nc(C)c3c(c2c1)CC[C@]1(C[C@H]2C(=O)N[C@]4(C(=O)NS(=O)(=O)C5(C)CC5)C[C@H]4/C=C\CCCCC[C@H](NC(=O)OC(C)(C)C)C(=O)N2C1)O3` [Example 9, tert-Butyl [(2R,6S,12Z,13aS,14aR,16aS)-9′-methoxy-5′-methyl-14a-{[(1-methylcyclopropyl)sulfonyl]carbamoyl}-5,16-dioxo-1,1′,2′,5,6,7,8,9,10,11,13a,14,14a,15, 16,16a-hexadecahydrospiro[cyclopropa[e]pyrrolo[1,2-a][1,4]diazacyclopentadecine-2,3′-pyrano[2,3-c]quinolin]-6-yl]carbamate], the IC50 (IC50 [gt-1b] (nM), NS3/4A genotype 1b, enzyme 0.2 nM, K+ salt) is reported as 0.006 nM.
`Cc1nc2ccccc2c2c1O[C@]1(CC2)C[C@H]2C(=O)N[C@]3(C(=O)NS(=O)(=O)C4(C)CC4)C[C@H]3/C=C\CCCCC[C@H](NC(=O)OC3CCN(C)CC3)C(=O)N2C1` [Example 117, 1-methylpiperidin-4-yl [(2R,6S,12Z,13aS,14aR,16aS)-5′-methyl-14a-{[(1-methylcyclopropyl)sulfonyl]carbamoyl}-5,16-dioxo-1,1′,2′,5,6,7,8,9,10,11,13a,14,14a,15,16,16a-hexadecahydrospiro[cyclopropa[e]pyrrolo[1,2-a][1,4]diazacyclopentadecine-2,3′-pyrano[2,3-c]quinolin]-6-yl]carbamate] was tested, and the IC50 [2] was 0.056 nM.
Work on `CCc1nc2ccc(OCCN3CCOCC3)cc2c2c1O[C@]1(CC2)C[C@H]2C(=O)N[C@]3(C(=O)NS(=O)(=O)C4(C)CC4)C[C@H]3/C=C\CCCCC[C@H](NC(=O)OC3(C)CCC3)C(=O)N2C1` [Example 509, 1-methylcyclobutyl {(2R,6S,12Z,13aS,14aR,16aS)-5′-ethyl-14a-{[(1-methylcyclopropyl)sulfonyl]carbamoyl}-9′-[2-(morpholin-4-yl)ethoxy]-5,16-dioxo-1,1′,2′,5,6,7,8,9,10,11,13a,14,14a,15,16,16a-hexadecahydrospiro[cyclopropa[e]pyrrolo[1,2-a][1,4]diazacyclopentadecine-2,3′-pyrano[2,3-c]quinolin]-6-yl}carbamate] yielded an IC50 [3] of 0.006 nM.
With `COc1ccc2nc(C(C)C)c3c(c2c1)[C@H](F)C[C@]1(C[C@H]2C(=O)N[C@]4(C(=O)NS(=O)(=O)C5(C)CC5)C[C@H]4/C=C\CCCCC[C@H](NC(=O)OC(C)(C)C)C(=O)N2C1)O3` [Example 32, tert-butyl ((1′R,2S,6S,13aS,14aR,16aS,Z)-1′-fluoro-5′-isopropyl-9′-methoxy-14a-(((1-methylcyclopropyl)sulfonyl)carbamoyl)-5,16-dioxo-1′,2′,3,5,6,7,8,9,10,11,13a,14, 14a,15,16,16a-hexadecahydro-1H-spiro[cyclopropa[e]pyrrolo[1,2-a][1,4]diazacyclopentadecine-2,3′-pyrano[2,3-c]quinolin]-6-yl)carbamate] the IC50 [2] was 0.024 nM.
In the case of `CCc1nc2ccc(OCCCN3CCOCC3)cc2c2c1O[C@]1(CC2)C[C@H]2C(=O)N[C@]3(C(=O)NS(=O)(=O)C4(C)CC4)C[C@H]3/C=C\CCCCC[C@H](NC(=O)OCC(C)(C)C)C(=O)N2C1` [Example 521, 2,2-dimethylpropyl {(2R,6S,12Z,13aS,14aR,16aS)-5′-ethyl-14a-{[(1-methylcyclopropyl)sulfonyl]carbamoyl}-9′-[3-(morpholin-4-yl)propoxy]-5,16-dioxo-1,1′,2′,5,6,7,8,9,10,11,13a,14,14a,15,16,16a-hexadecahydrospiro[cyclopropa[e]pyrrolo[1,2-a][1,4]diazacyclopentadecine-2,3′-pyrano[2,3-c]quinolin]-6-yl}carbamate], the IC50 (IC50 [gt-1b], NS3/4A protease TRF assay, genotype 1b enzyme 0.2 nM, HCl salt) is reported as 0.004 nM.
`COc1cc(Cl)c2nc(C(F)(F)F)c3c(c2c1)CC[C@]1(C[C@H]2C(=O)N[C@]4(C(=O)NS(=O)(=O)C5(C)CC5)C[C@H]4/C=C\CCCCC[C@H](NC(=O)OCC(C)(C)C)C(=O)N2C1)O3` [Example 401, 2,2-dimethylpropyl [(2R,6S,12Z,13aS,14aR,16aS)-7′-chloro-9′-methoxy-14a-{[(1-methylcyclopropyl)sulfonyl]carbamoyl}-5,16-dioxo-5′-(trifluoromethyl)-1,1′,2′,5,6,7,8,9,10,11,13a,14,14a,15,16,16a-hexadecahydrospiro[cyclopropa[e]pyrrolo[1,2-a][1,4]diazacyclopentadecine-2,3′-pyrano[2,3-c]quinolin]-6-yl]carbamate] gave an IC50 [1] of 0.057 nM.
